From PubChem BioAssay (NCI)
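Exposure lasted 48 hours, with cells grown in 96-well plates and compounds tested at five concentrations. At the TGI there is no net growth.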

Experiments:
Experiment in all cases: NCI anticancer screen, dose series, 48 h
SK-MEL-5 melanoma = system: SK-MEL-5 melanoma
M19-MEL melanoma = system: M19-MEL melanoma
UACC-62 melanoma = system: UACC-62 melanoma
SF-268 CNS = system: SF-268 CNS
MALME-3M melanoma = system: MALME-3M melanoma
RPMI-8226 leukemia = system: RPMI-8226 leukemia
UO-31 renal = system: UO-31 renal
DMS 114 small cell lung = system: DMS 114 small cell lung
MOLT-4 leukemia = system: MOLT-4 leukemia
SR leukemia = system: SR leukemia
A549 NSCLC = system: A549 NSCLC
K-562 leukemia = system: K-562 leukemia
U251 CNS = system: U251 CNS
CCRF-CEM leukemia = system: CCRF-CEM leukemia
KM20L2 colon = system: KM20L2 colon
NCI-H23 lung = system: NCI-H23 lung
SK-MEL-2 melanoma = system: SK-MEL-2 melanoma
A498 renal = system: A498 renal
SF-295 CNS = system: SF-295 CNS
XF 498 CNS = system: XF 498 CNS
TK-10 renal = system: TK-10 renal
HCT-15 colon = system: HCT-15 colon
SNB-75 CNS = system: SNB-75 CNS
ACHN renal = system: ACHN renal
SK-MEL-28 melanoma = system: SK-MEL-28 melanoma
DMS 273 small cell lung = system: DMS 273 small cell lung
UACC-257 melanoma = system: UACC-257 melanoma
HOP-62 NSCLC = system: HOP-62 NSCLC
HCC-2998 colon = system: HCC-2998 colon
HOP-18 NSCLC = system: HOP-18 NSCLC
NCI-H460 lung = system: NCI-H460 lung
786-0 renal = system: 786-0 renal
SN12C renal = system: SN12C renal
CAKI-1 renal = system: CAKI-1 renal
LXFL 529 NSCLC = system: LXFL 529 NSCLC
SW-620 colon = system: SW-620 colon
DLD-1 colon = system: DLD-1 colon
HT29 colon = system: HT29 colon
SNB-78 CNS = system: SNB-78 CNS
IGROV1 ovarian = system: IGROV1 ovarian
HOP-92 NSCLC = system: HOP-92 NSCLC
SF-539 CNS = system: SF-539 CNS
SNB-19 CNS = system: SNB-19 CNS
M14 melanoma = system: M14 melanoma
HL-60(TB) leukemia = system: HL-60(TB) leukemia
EKVX NSCLC = system: EKVX NSCLC
RXF 393 renal = system: RXF 393 renal
OVCAR-4 ovarian = system: OVCAR-4 ovarian
OVCAR-5 ovarian = system: OVCAR-5 ovarian
OVCAR-8 ovarian = system: OVCAR-8 ovarian
KM12 colon = system: KM12 colon
SK-OV-3 ovarian = system: SK-OV-3 ovarian
HCT-116 colon = system: HCT-116 colon
NCI-H226 lung = system: NCI-H226 lung

Measured: TGI

CN=c1ss/c(=N\C(=S)N(C)C)n1C
> 100 µM: all assays above
